In patent publication US20210228713A1, “TLR7 PEPTIDE CONJUGATES” (Apros Therapeutics, Inc., priority 2018, published 2021):
Like-named read-outs stand apart in the source and are kept apart here. No end group written: not given here.

Biological target: T1, human TLR7 (hTLR7) (Homo sapiens, UniProt Q9NYK1)
T1 construct: host or cells: HEK293 (HEK-Blue hTLR7)
T1 sequence (Q9NYK1 27-1049): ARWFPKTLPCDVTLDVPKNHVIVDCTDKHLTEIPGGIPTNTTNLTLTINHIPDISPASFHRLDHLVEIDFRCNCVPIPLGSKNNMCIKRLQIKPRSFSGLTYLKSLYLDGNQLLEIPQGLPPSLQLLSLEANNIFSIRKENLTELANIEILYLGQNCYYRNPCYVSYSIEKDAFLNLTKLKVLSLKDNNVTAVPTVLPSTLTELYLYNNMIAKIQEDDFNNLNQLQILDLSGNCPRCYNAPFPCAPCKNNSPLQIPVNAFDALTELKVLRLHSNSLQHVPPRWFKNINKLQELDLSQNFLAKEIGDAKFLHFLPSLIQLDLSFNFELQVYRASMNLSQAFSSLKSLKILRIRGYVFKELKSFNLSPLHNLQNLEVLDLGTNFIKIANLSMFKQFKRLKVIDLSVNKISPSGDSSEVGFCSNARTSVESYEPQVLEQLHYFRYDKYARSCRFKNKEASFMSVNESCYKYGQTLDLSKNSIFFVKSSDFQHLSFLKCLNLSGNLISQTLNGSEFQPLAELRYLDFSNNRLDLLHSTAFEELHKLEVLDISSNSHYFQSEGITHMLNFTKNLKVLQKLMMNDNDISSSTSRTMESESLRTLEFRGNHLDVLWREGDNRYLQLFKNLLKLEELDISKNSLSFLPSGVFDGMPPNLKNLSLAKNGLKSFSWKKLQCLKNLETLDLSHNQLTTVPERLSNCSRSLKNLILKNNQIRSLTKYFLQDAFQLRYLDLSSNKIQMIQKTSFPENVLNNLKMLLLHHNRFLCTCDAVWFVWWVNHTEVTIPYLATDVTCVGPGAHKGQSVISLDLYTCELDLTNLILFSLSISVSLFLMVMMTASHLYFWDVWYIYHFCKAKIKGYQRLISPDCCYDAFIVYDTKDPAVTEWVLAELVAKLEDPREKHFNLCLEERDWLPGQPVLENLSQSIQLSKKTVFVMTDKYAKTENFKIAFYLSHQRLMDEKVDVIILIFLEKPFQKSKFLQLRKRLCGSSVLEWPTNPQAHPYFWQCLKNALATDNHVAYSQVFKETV
Experiment: HEK-Blue hTLR7 cell assay (NF-kB/AP-1 driven SEAP reporter)
Type: cell-based
Text: HEK-Blue™ TLR7 cells were purchased from Invivogen (San Diego, Calif.). The following description was taken from the product information sheet.
“HEK-Blue™ hTLR7 cells are designed for studying the stimulation of human TLR7 (hTLR7) by monitoring the activation of NF-kB. HEK-Blue™ hTLR7 cells were obtained by co-transfection of the hTLR7 gene and an optimized secreted embryonic alkaline phosphatase (SEAP) reporter gene into HEK293 cells. The SEAP reporter gene is placed under the control of the IFN-b minimal promoter fused to five NF-kB and AP-1-binding sites. Stimulation with a TLR7 ligand activates NF-kB and AP-1 which induce the production of SEAP, which is detected by the HEK-Blue™ Detection cell culture medium.”
A typical assay protocol involved the following steps:
1. Cells were cultured according to the product information sheet.
2. 10 mM compound stock in DMSO were first diluted to 3 mM and then 3-fold serially diluted using DMSO to afford a 10-pt dilution.
3. 3 μl of the diluted DMSO were added to 57 μl HEK-Blue™ Detection media for a further 20-fold dilution.
4. 10 μl of the diluted compound in assay media were added into 40 μl cell culture (in HEK-Blue™ Detection media) in 384-well plate. Final cell concentration=8,000 cells per well.
5. The plates were incubated at 37° C. in 5% CO2 for 16 h. SEAP was determined using a spectrophotometer at 620-655 nm.

[1] = HEK TLR7 activity of unconjugated (naked) peptides, read-out: EC50, Peptide without Compound 1

| Sequence | EC50 | EC50 [1] |
| --- | --- | --- |
| EQLSSVSSFERFEIFPKESSWPNHN [AP11] | > 30 µM | – |
| ESLKISQAVHAAHAEINEAGREVVG [AP10] | > 30 µM | – |
| LGRLMYDMYPHFMPTNLGPSEKRVW [AP8] | – | > 30 µM |
| LLTRILTIPQSLDSWWTSLNFLGGS [AP9] | – | > 30 µM |
| NRFVSIFASGPSQKIQLVNNNGSWH [AP5] | – | > 30 µM |
| TLTCGFADLMGYIPLVGAPLGGAAR [AP3] | – | > 30 µM |
